{
  "source": "patent US11548925B2",
  "about": "“CACNA1H-derived tumor antigen polypeptide and use thereof” (Genoimmune Therapeutics Co., Ltd., priority 2016, dated 2023)",
  "key": {"CD8+ T cells [1]": {"test_system": "CD8+ T cells", "experiment": "ELISPOTs detection of IFN-γ secretion by peptide-specific CD8+ T cells", "format": "cell-based, human", "details": "for Conclusion (immunogenicity): ELISPOTs; for Number of spots in the mutant peptide group / Number of spots in the wild-type peptide group: T cells activated by the listed peptide, 20 h; for Number of spots in the mutant peptide group: T2 cells loaded with TLISSLMPI; for Number of spots in the wild-type peptide group: T2 cells loaded with TLISSLRPI", "from_the_text": "In this example, a ELISPOTs detection kit (Cat. No.: 3420-4AST-10, MABTECH) was used to verify the activation of an immune response of CD8+ T cells by the peptides of the present invention.\nPrinciple of the ELISPOTs detection method is as follows: CD8+ T cells can specifically recognize the complex of HLA-A0201 and a peptide. The population of T cells recognizing the complex of the peptide and HLA-A0201 is varying, depending on the peptide sequence. Since T2 cells express HLA-A0201, CD8+ T cells can specifically recognize the T2 cells loaded with a peptide. After specific recognition of the complex of HLA-A0201 and the peptide, peptide-specific CD8+ T cells can be activated again to secrete IFN-γ interferon. The IFN-γ interferon secreted by the activated CD8+ T cells can be captured by antibodies on the ELISPOTs plate. Finally, the enzyme-conjugated antibody that recognizes IFN-γ can degrade the substrate through the enzyme conjugated thereto and develop color, eventually producing spots. The number of spots represents the number of cells that are activated to secrete IFN-γ interferon.\nThe cultured cells from Example 3 were added, along with T2 cells loaded with the mutant peptide […] (SEQ ID NO: 2) of the present invention and the wild-type peptide […] (SEQ ID NO: 1), respectively, into ELISPOTs plates, and cultured for 20 h, and then a ELISPOTs detection was performed (see the kit instruction). Finally, the spots produced by the ELISPOTs detection were counted.\nThe peptide was determined to have immunogenicity when the number of spots of the tested peptide/the number of spots of an unrelated peptide>2; that is, if the number of spots caused by the tested peptide is more than twice than that of an unrelated peptide, the tested peptide is determined to have immunogenicity."}, "CD8+ T cells [2]": {"test_system": "CD8+ T cells", "experiment": "ELISPOTs detection of IFN-γ secretion by peptide-specific CD8+ T cells", "format": "cell-based, human", "details": "ratio of spot numbers; >2 immunogenic"}, "T2 cells": {"test_system": "T2 cells", "experiment": "LDH release assay, killing of peptide-loaded T2 target cells by CD8+ T cells", "format": "cell-based, human", "details": "4 h", "protocol": "The cells cultured in Example 3 were co-cultured with T2 cells loaded with the mutant peptides of the present invention or the wild-type peptide or without a peptide. A maximum release well, a volume correction well, a medium control well, a spontaneous release well and control wells for example at different effector-to-target ratios (ratios of T cells to T2 cells) were set in this experiment. Three replicate wells were set for each group. After 4 h, 50 μl of the co-culture supernatant was taken out and added to 50 μl of LDH substrate mixture to catalyze the reaction of LDH substrate. Finally, the plates were read at a wavelength of 490 nm, with a reference wavelength of 680 nm, and the killing activity against target cells T2 was calculated based on the control wells.\nThe formula for calculating the killing activity is: Killing efficiency (%)=(test well−spontaneous release of effector cells−spontaneous release of target cells+medium well)/(maximum release of target cells−volume correction well−spontaneous release of target cells+medium well)×100%"}, "[3]": {"test_system": "H2087-TLISSLMPI (SEQ ID NO: 2) subcutaneous tumor", "experiment": "DC vaccine infected with recombinant lentivirus containing peptide gene in H2087-[…] tumor model", "format": "in vivo, NOD/SCID mice", "details": "DC infected with lentivirus carrying peptide gene, 2 injections", "from_the_text": "The following DNA sequences were synthesized: “[…]” (SEQ ID NO: 8), encoding the wild-type peptide […] (SEQ ID NO: 1); “[…]” (SEQ ID NO: 9), encoding the mutant peptide […] (SEQ ID NO: 2); “[…]” (SEQ ID NO: 10), encoding the SEQ ID NO: 2 […]'s variant peptide […] (SEQ ID NO: 3); “[…]” (SEQ ID NO: 11), encoding the SEQ ID NO: 2 […]'s variant peptide […] (SEQ ID NO: 4); “[…]” (SEQ ID NO: 12), encoding the SEQ ID NO: 2 […]'s variant peptide […] (SEQ ID NO: 5); “[…]” (SEQ ID NO: 13), encoding the SEQ ID NO: 2 […]'s variant peptide […] (SEQ ID NO: 6); and “[…]” (SEQ ID NO: 14), encoding the SEQ ID NO: 2_[…]'s variant peptide […] (SEQ ID NO: 7). The wild-type peptide […] (SEQ ID NO: 1), the mutant peptide […] (SEQ ID NO: 2) and the mutant peptide SEQ ID NO: 2 […]'s variant peptides were constructed into the lentiviral vector pHBLV-Puro, respectively, to name as pHBLV-Puro-[…] (SEQ ID NO: 1), pHBLV-Puro-[…] (SEQ ID NO: 2), pHBLV-Puro-[…] (SEQ ID NO: 3), pHBLV-Puro-[…] (SEQ ID NO: 4), pHBLV-Puro-[…] (SEQ ID NO: 5), pHBLV-Puro-[…] (SEQ ID NO: 6) and pHBLV-Puro-[…] (SEQ ID NO: 7), respectively. The seven lentiviral constructs were co-transfected into 293T cells with helper plasmids pSPAX2 and pMD2G for packaging, and lentiviruses of the wild-type peptide […] (SEQ ID NO: 1), the mutant peptide […] (SEQ ID NO: 2) and the mutant peptide's variant peptides were obtained.\n600-900 ml of anticoagulated peripheral blood was collected from healthy volunteers for isolating peripheral blood mononuclear cells (PBMCs) via Ficoll. Cells were collected for use. 2×10^7 PBMCs per 0.5 ml was intraperitoneally injected into each of 300 NOD SCID mice without immune leakage to perform human immune reconstitution in NOD SCID mice. […]\nThe human non-small cell lung adenocarcinoma cell line H2087-[…] […] The long diameter a and the short diameter b of the tumor were measured with a vernier caliper every 2-3 days and the size of the tumor was calculated as a*b*b/2. The mice and tumors were weighed and recorded every day. […] The tumor volume and the survival rate of mice were recorded every 2 days. […]"}, "[4]": {"details": "effector-to-target ratio 1:1, target T2 loaded with TLISSLMPI"}, "[5]": {"details": "effector-to-target ratio 1:1, target T2 loaded with wild-type TLISSLRPI"}, "[6]": {"details": "effector-to-target ratio 10:1, target T2 loaded with TLISSLMPI"}, "[7]": {"details": "effector-to-target ratio 10:1, target T2 loaded with wild-type TLISSLRPI"}},
  "data": [
    {"sequence": "TLISSLMPL", "values": [
      {"measurement": "Conclusion (immunogenicity)", "setting": "CD8+ T cells [1]", "value": "immunogenic"},
      {"measurement": "Number of spots in the mutant peptide group", "setting": "CD8+ T cells [1]", "value": 317},
      {"measurement": "Number of spots in the wild-type peptide group", "setting": "CD8+ T cells [1]", "value": 37},
      {"measurement": "Fold (tested/wild-type)", "setting": "CD8+ T cells [2]", "value": 8.57},
      {"measurement": "Killing efficiency", "setting": "T2 cells; [4]", "value": 8.23, "unit": "%"},
      {"measurement": "Killing efficiency", "setting": "T2 cells; [5]", "value": 3.12, "unit": "%"},
      {"measurement": "Killing efficiency", "setting": "T2 cells; [6]", "value": 39.66, "unit": "%"},
      {"measurement": "Killing efficiency", "setting": "T2 cells; [7]", "value": 5.71, "unit": "%"}
    ]},
    {"sequence": "TLISSLMPV", "values": [
      {"measurement": "Conclusion (immunogenicity)", "setting": "CD8+ T cells [1]", "value": "immunogenic"},
      {"measurement": "Number of spots in the mutant peptide group", "setting": "CD8+ T cells [1]", "value": 325},
      {"measurement": "Number of spots in the wild-type peptide group", "setting": "CD8+ T cells [1]", "value": 41},
      {"measurement": "Fold (tested/wild-type)", "setting": "CD8+ T cells [2]", "value": 7.93},
      {"measurement": "Killing efficiency", "setting": "T2 cells; [4]", "value": 8.56, "unit": "%"},
      {"measurement": "Killing efficiency", "setting": "T2 cells; [5]", "value": 2.57, "unit": "%"},
      {"measurement": "Killing efficiency", "setting": "T2 cells; [6]", "value": 43.82, "unit": "%"},
      {"measurement": "Killing efficiency", "setting": "T2 cells; [7]", "value": 4.73, "unit": "%"}
    ]},
    {"sequence": "TLISSLRPI [wild-type CACNA1H peptide used as comparison, reference compound]", "values": [
      {"measurement": "Tumor-suppressing effect", "setting": "[3]", "value": "no effect on this tumor"}
    ]},
    {"sequence": "TMISSLMPI", "values": [
      {"measurement": "Conclusion (immunogenicity)", "setting": "CD8+ T cells [1]", "value": "immunogenic"},
      {"measurement": "Number of spots in the mutant peptide group", "setting": "CD8+ T cells [1]", "value": 321},
      {"measurement": "Number of spots in the wild-type peptide group", "setting": "CD8+ T cells [1]", "value": 27},
      {"measurement": "Fold (tested/wild-type)", "setting": "CD8+ T cells [2]", "value": 11.88},
      {"measurement": "Killing efficiency", "setting": "T2 cells; [4]", "value": 8.33, "unit": "%"},
      {"measurement": "Killing efficiency", "setting": "T2 cells; [5]", "value": 2.85, "unit": "%"},
      {"measurement": "Killing efficiency", "setting": "T2 cells; [6]", "value": 41.16, "unit": "%"},
      {"measurement": "Killing efficiency", "setting": "T2 cells; [7]", "value": 5.13, "unit": "%"}
    ]},
    {"sequence": "TMISSLMPL", "values": [
      {"measurement": "Conclusion (immunogenicity)", "setting": "CD8+ T cells [1]", "value": "immunogenic"},
      {"measurement": "Number of spots in the mutant peptide group", "setting": "CD8+ T cells [1]", "value": 338},
      {"measurement": "Number of spots in the wild-type peptide group", "setting": "CD8+ T cells [1]", "value": 39},
      {"measurement": "Fold (tested/wild-type)", "setting": "CD8+ T cells [2]", "value": 8.67},
      {"measurement": "Killing efficiency", "setting": "T2 cells; [4]", "value": 9.12, "unit": "%"},
      {"measurement": "Killing efficiency", "setting": "T2 cells; [5]", "value": 3.13, "unit": "%"},
      {"measurement": "Killing efficiency", "setting": "T2 cells; [6]", "value": 45.23, "unit": "%"},
      {"measurement": "Killing efficiency", "setting": "T2 cells; [7]", "value": 5.83, "unit": "%"}
    ]},
    {"sequence": "TMISSLMPV", "values": [
      {"measurement": "Conclusion (immunogenicity)", "setting": "CD8+ T cells [1]", "value": "immunogenic"},
      {"measurement": "Number of spots in the mutant peptide group", "setting": "CD8+ T cells [1]", "value": 345},
      {"measurement": "Number of spots in the wild-type peptide group", "setting": "CD8+ T cells [1]", "value": 35},
      {"measurement": "Fold (tested/wild-type)", "setting": "CD8+ T cells [2]", "value": 9.86},
      {"measurement": "Killing efficiency", "setting": "T2 cells; [4]", "value": 9.32, "unit": "%"},
      {"measurement": "Killing efficiency", "setting": "T2 cells; [5]", "value": 3.51, "unit": "%"},
      {"measurement": "Killing efficiency", "setting": "T2 cells; [6]", "value": 47.35, "unit": "%"},
      {"measurement": "Killing efficiency", "setting": "T2 cells; [7]", "value": 6.31, "unit": "%"}
    ]}
  ]
}
